Reference: PubChem BioAssay AID1259407 (Chemical Carcinogenesis Research Information System (CCRIS), 2018)
Activity calls are given as the source filed them. The rule behind the calls is not given here.

Tested on: CCRIS mutagenicity, Ames/micronucleus/aberration tests
Assay: CCRIS mutagenicity studies

For `O=NN1CCCCC1`, the mutagenic call (Test System: AMES SALMONELLA TYPHIMURIUM, Strain/Indicator: TA98, Metabolic Activation: HAMSTER, LIVER, S-9, AROCLOR 1254 (10%), Method: PREINCUBATION) was “active; positive”, the mutagenic call (Test System: AMES SALMONELLA TYPHIMURIUM, Strain/Indicator: TA98, Metabolic Activation: HAMSTER, LIVER, S-9, AROCLOR 1254 (10%), Method: STANDARD PLATE) was “active; positive” and the mutagenic call (Test System: AMES SALMONELLA TYPHIMURIUM, Strain/Indicator: TA98, Metabolic Activation: HAMSTER, LIVER, S-9, AROCLOR 1254, Method: PREINCUBATION) was “active; positive”. For the same molecule, the mutagenic call (Test System: AMES SALMONELLA TYPHIMURIUM, Strain/Indicator: TA98, Metabolic Activation: HAMSTER, LIVER, S-9, AROCLOR 1254, Method: STANDARD PLATE) was “active; positive”, the mutagenic call (Test System: AMES SALMONELLA TYPHIMURIUM, Strain/Indicator: TA98, Metabolic Activation: NONE, Method: PREINCUBATION) was “inactive; negative” and the mutagenic call (Test System: AMES SALMONELLA TYPHIMURIUM, Strain/Indicator: TA98, Metabolic Activation: NONE, Method: STANDARD PLATE) was “inactive; negative”. The mutagenic call (Test System: AMES SALMONELLA TYPHIMURIUM, Strain/Indicator: TA98, Metabolic Activation: RAT, LIVER, S-9, AROCLOR 1254 (10%), Method: PREINCUBATION) was “inactive; negative”, the mutagenic call (Test System: AMES SALMONELLA TYPHIMURIUM, Strain/Indicator: TA98, Metabolic Activation: RAT, LIVER, S-9, AROCLOR 1254 (10%), Method: STANDARD PLATE) was “inactive; negative” and the mutagenic call (Test System: AMES SALMONELLA TYPHIMURIUM, Strain/Indicator: TA98, Metabolic Activation: RAT, LIVER, S-9, AROCLOR 1254, Method: PREINCUBATION) was “inactive; negative”. For the same molecule, the mutagenic call (Test System: AMES SALMONELLA TYPHIMURIUM, Strain/Indicator: TA98, Metabolic Activation: RAT, LIVER, S-9, AROCLOR 1254, Method: STANDARD PLATE) was “inactive; negative”, the mutagenic call (Test System: AMES SALMONELLA TYPHIMURIUM, Strain/Indicator: TA100, Metabolic Activation: HAMSTER, LIVER, S-9, AROCLOR 1254 (10%), Method: PREINCUBATION) was “active; positive” and the mutagenic call (Test System: AMES SALMONELLA TYPHIMURIUM, Strain/Indicator: TA100, Metabolic Activation: HAMSTER, LIVER, S-9, AROCLOR 1254 (10%), Method: STANDARD PLATE) was “active; positive”. The mutagenic call (Test System: AMES SALMONELLA TYPHIMURIUM, Strain/Indicator: TA100, Metabolic Activation: HAMSTER, LIVER, S-9, AROCLOR 1254, Method: PREINCUBATION) was “active; positive”, the mutagenic call (Test System: AMES SALMONELLA TYPHIMURIUM, Strain/Indicator: TA100, Metabolic Activation: HAMSTER, LIVER, S-9, Method: PREINCUBATION) was “active; positive” and the mutagenic call (Test System: AMES SALMONELLA TYPHIMURIUM, Strain/Indicator: TA100, Metabolic Activation: HUMAN, LIVER, S-9, Method: PREINCUBATION) was “active; positive”. The mutagenic call (Test System: AMES SALMONELLA TYPHIMURIUM, Strain/Indicator: TA100, Metabolic Activation: MOUSE, LIVER, S-9, Method: PREINCUBATION) was “active; positive”, the mutagenic call (Test System: AMES SALMONELLA TYPHIMURIUM, Strain/Indicator: TA100, Metabolic Activation: NONE, Method: PREINCUBATION) was “inactive; negative” and the mutagenic call (Test System: AMES SALMONELLA TYPHIMURIUM, Strain/Indicator: TA100, Metabolic Activation: NONE, Method: STANDARD PLATE) was “inactive; negative”. The mutagenic call (Test System: AMES SALMONELLA TYPHIMURIUM, Strain/Indicator: TA100, Metabolic Activation: RABBIT, LIVER, S-9, Method: STANDARD PLATE) was “inactive; negative”, the mutagenic call (Test System: AMES SALMONELLA TYPHIMURIUM, Strain/Indicator: TA100, Metabolic Activation: RABBIT, LUNG, S-9, Method: STANDARD PLATE) was “active; positive” and the mutagenic call (Test System: AMES SALMONELLA TYPHIMURIUM, Strain/Indicator: TA100, Metabolic Activation: RABBIT, NASAL, S-9, Method: STANDARD PLATE) was “inactive; negative”. The mutagenic call (Test System: AMES SALMONELLA TYPHIMURIUM, Strain/Indicator: TA100, Metabolic Activation: RAT, LIVER, S-9, AROCLOR 1254 (10%), Method: PREINCUBATION) was “active; positive”, the mutagenic call (Test System: AMES SALMONELLA TYPHIMURIUM, Strain/Indicator: TA100, Metabolic Activation: RAT, LIVER, S-9, AROCLOR 1254 (10%), Method: STANDARD PLATE) was “inactive; negative” and the mutagenic call (Test System: AMES SALMONELLA TYPHIMURIUM, Strain/Indicator: TA100, Metabolic Activation: RAT, LIVER, S-9, AROCLOR 1254, Method: PREINCUBATION) was “active; positive”. The mutagenic call (Test System: AMES SALMONELLA TYPHIMURIUM, Strain/Indicator: TA100, Metabolic Activation: RAT, LIVER, S-9, AROCLOR 1254, Method: STANDARD PLATE) was “inactive; negative”, the mutagenic call (Test System: AMES SALMONELLA TYPHIMURIUM, Strain/Indicator: TA100, Metabolic Activation: RAT, LUNG, S-9, Method: STANDARD PLATE) was “inactive; negative” and the mutagenic call (Test System: AMES SALMONELLA TYPHIMURIUM, Strain/Indicator: TA100, Metabolic Activation: RAT, NASAL, S-9, Method: STANDARD PLATE) was “active; positive”. The mutagenic call (Test System: AMES SALMONELLA TYPHIMURIUM, Strain/Indicator: TA100, Metabolic Activation: TOBACCO CELLS, Method: PREINCUBATION) was “inactive; negative”, the mutagenic call (Test System: AMES SALMONELLA TYPHIMURIUM, Strain/Indicator: TA104, Metabolic Activation: RAT, LIVER, S-9, AROCLOR 1254, Method: PREINCUBATION) was “active; positive” and the mutagenic call (Test System: AMES SALMONELLA TYPHIMURIUM, Strain/Indicator: TA1530, Metabolic Activation: RAT LIVER, CYTOSOL, ISONIAZID, Method: PREINCUBATION) was “inactive; negative”. The mutagenic call (Test System: AMES SALMONELLA TYPHIMURIUM, Strain/Indicator: TA1530, Metabolic Activation: RAT LIVER, MICROSOMES, ISONIAZID, Method: PREINCUBATION) was “active; positive”, the mutagenic call (Test System: AMES SALMONELLA TYPHIMURIUM, Strain/Indicator: TA1530, Metabolic Activation: RAT, LIVER, S-9, Method: STANDARD PLATE) was “active; positive” and the mutagenic call (Test System: AMES SALMONELLA TYPHIMURIUM, Strain/Indicator: TA1535, Metabolic Activation: HAMSTER, LIVER, S-9, AROCLOR 1254 (10%), Method: PREINCUBATION) was “active; positive”. For the same molecule, the mutagenic call (Test System: AMES SALMONELLA TYPHIMURIUM, Strain/Indicator: TA1535, Metabolic Activation: HAMSTER, LIVER, S-9, AROCLOR 1254, Method: PREINCUBATION) was “active; positive”, the mutagenic call (Test System: AMES SALMONELLA TYPHIMURIUM, Strain/Indicator: TA1535, Metabolic Activation: NONE, Method: PREINCUBATION) was “inactive; negative” and the mutagenic call (Test System: AMES SALMONELLA TYPHIMURIUM, Strain/Indicator: TA1535, Metabolic Activation: RAT, LIVER, S-9, AROCLOR 1254 (10%), Method: PREINCUBATION) was “active; positive”. The mutagenic call (Test System: AMES SALMONELLA TYPHIMURIUM, Strain/Indicator: TA1535, Metabolic Activation: RAT, LIVER, S-9, AROCLOR 1254, Method: PREINCUBATION) was “active; positive”, the mutagenic call (Test System: AMES SALMONELLA TYPHIMURIUM, Strain/Indicator: TA1535, Metabolic Activation: RAT, LIVER, S-9, Method: STANDARD PLATE) was “active; positive” and the mutagenic call (Test System: AMES SALMONELLA TYPHIMURIUM, Strain/Indicator: TA1537, Metabolic Activation: HAMSTER, LIVER, S-9, AROCLOR 1254 (10%), Method: PREINCUBATION) was “inactive; negative”. The mutagenic call (Test System: AMES SALMONELLA TYPHIMURIUM, Strain/Indicator: TA1537, Metabolic Activation: HAMSTER, LIVER, S-9, AROCLOR 1254, Method: PREINCUBATION) was “inactive; negative”, the mutagenic call (Test System: AMES SALMONELLA TYPHIMURIUM, Strain/Indicator: TA1537, Metabolic Activation: NONE, Method: PREINCUBATION) was “inactive; negative” and the mutagenic call (Test System: AMES SALMONELLA TYPHIMURIUM, Strain/Indicator: TA1537, Metabolic Activation: RAT, LIVER, S-9, AROCLOR 1254 (10%), Method: PREINCUBATION) was “inactive; negative”. For the same molecule, the mutagenic call (Test System: AMES SALMONELLA TYPHIMURIUM, Strain/Indicator: TA1537, Metabolic Activation: RAT, LIVER, S-9, AROCLOR 1254, Method: PREINCUBATION) was “inactive; negative”, the mutagenic call (Test System: AMES SALMONELLA TYPHIMURIUM, Strain/Indicator: TA1538, Metabolic Activation: HAMSTER, LIVER, S-9, AROCLOR 1254 (10%), Method: PREINCUBATION) was “inactive; negative” and the mutagenic call (Test System: AMES SALMONELLA TYPHIMURIUM, Strain/Indicator: TA1538, Metabolic Activation: HAMSTER, LIVER, S-9, AROCLOR 1254, Method: PREINCUBATION) was “inactive; negative”. For the same molecule, the mutagenic call (Test System: AMES SALMONELLA TYPHIMURIUM, Strain/Indicator: TA1538, Metabolic Activation: NONE, Method: PREINCUBATION) was “inactive; negative”, the mutagenic call (Test System: AMES SALMONELLA TYPHIMURIUM, Strain/Indicator: TA1538, Metabolic Activation: RAT, LIVER, S-9, AROCLOR 1254 (10%), Method: PREINCUBATION) was “inactive; negative” and the mutagenic call (Test System: AMES SALMONELLA TYPHIMURIUM, Strain/Indicator: TA1538, Metabolic Activation: RAT, LIVER, S-9, AROCLOR 1254, Method: PREINCUBATION) was “inactive; negative”. The mutagenic call (Test System: AMES SALMONELLA TYPHIMURIUM, Strain/Indicator: TA1975, Metabolic Activation: RAT, LIVER, S-9, AROCLOR 1254, Method: PREINCUBATION) was “active; positive”, the mutagenic call (Test System: UDS RODENT CELLS, Strain/Indicator: THY INCORP (NON-S-PHASE), Metabolic Activation: NONE, Method: LIQUID SCINTILLATION COUNTING) was “inactive; negative” and the mutagenic call (Test System: UDS RODENT CELLS, Strain/Indicator: THY INCORP (NON-S-PHASE), Metabolic Activation: RAT, LIVER, S-9, SODIUM PHENOBARBITAL, Method: LIQUID SCINTILLATION COUNTING) was “active; positive”.
